Experimental data from patent US4822791A, “Pharmaceutical compositions of-2,2-1,1-[bis-2,2'-(3,1-benzoxazin-4-one)9 ethylenes” (priority 1984, dated 1989).
“And” between values parts separate entries of the source, which are not always exact repeats. Equal entries are not always repeated. Where two headings read alike, the source gives them in different places.

Key:
[1] = tested on: passive cutaneous anaphylaxis (PCA); test: Anti-passive cutaneous anaphylaxis (PCA) activity in rats (Test Example 2); assay type: in vivo, Wistar strain rats; conditions: Rattus norvegicus, N 10; for inhibition in vivo at 10 mg/kg: 10 mg/kg PO; for inhibition in vivo at 50 mg/kg: 50 mg/kg PO; for inhibition in vivo at 100 mg/kg: 100 mg/kg PO; for inhibition in vivo at 200 mg/kg: 200 mg/kg PO
Description: (§1) Wistar strain rats were sensitized with ovalbumin using aluminium hydroxide gel and Bordetella Pertussis vaccine as adjuvants. Dilutions of antiserum (16-fold and 32-fold) obtained by collecting blood samples 14 days later were administered subcutaneously in the dorsal skin of the rats of the same strain at the rate of 0.1 ml per spot, and the rats were grown for 48 hours. One hour after peroral administration of the sample solution, a mixture of antigen ovalbumin and Evans-blue dye was administered to the tail venous of the animal according to the ordinary procedure. Thirty minutes later, the animals were sacrificed by exsanguination, and the areas of blue spots (long diameter×short diameter) eliciting on the portion of the antiserum injection at the dorsal skin were measured to obtain the rate of inhibition based on the average value shown by the control animals.

[2] = Acute toxicity LD50 in mice (Test Example 8); conditions: mouse, in vivo, one week, Probit method
Description: ddy-Strain mice (male) and Wistar strain rats were used to obtain LD50 values.
According to the ordinary procedure, suspension or solution of test sample was administered to the animals. From the number of the died animals until one week after the administration, LD50 values were obtained by Probit method.

[3] = tested on: passive cutaneous anaphylaxis (PCA); test: Anti-passive cutaneous anaphylaxis activity (PCA) in rats (Test Example 9); assay type: in vivo; conditions: Rattus norvegicus, po, 10 animals
Description: as §1
This test was conducted in a manner similar to that in Test Example 2, except that the dilutions of antiserum were 12- and 24-folds.

[4] = Acute toxicity LD50 in ICR mice (Test Example 11); conditions: mouse, in vivo, one week, Provit method
Description: As test animals, ICR-strain mice (male) were used. According to the conventional procedure, suspension or solution of test sample was administered to the animals. From the number of the died animals until one week after the administration, LD50 values were obtained by Provit method.

[5] = tested on: mast cell in abdominal cavity; test: Release of histamine by dextran (T-500), mast cell in abdominal cavity (Test Example 12); assay type: cell-based, rat
Description: (§2) Collection of mast cells in abdominal cavity and thoracic cavity and sensitizing of cells were conducted in similar manners to those in Test Example 10, respectively.
(§3) The sample solution was treated with 105 microgramms/ml phosphatidylserin PBS solution (0.5 ml) and incubated at 37° C. for 30 minutes, followed by addition of 25 mg/ml dextran (T-500) PBS solution (0.5 ml) and further incubation for 15 minutes.
(§4) This is conducted in a manner similar to that in Test Example 10.

[6] = tested on: Mast cell in thoracic cavity; test: Release of histamine by dextran (T-500), mast cell in thoracic cavity (Test Example 12); assay type: cell-based, rat
Description: as §2, §3, §4

[7] = tested on: mast cell in abdominal cavity; test: Release of histamine by antigen DNP-Ascaris, mast cell in abdominal cavity (Test Example 12); assay type: cell-based, rat; conditions: 10^-3 M; stronger than DSCG
Description: as §2
(1) Preparation of DNP-Ascaris antiserum was conducted in manner similar to that in Test Example 6.
This is conducted in amanner similar to that in Test Example 10.
as §4

[8] = tested on: mast cell in abdominal cavity; test: Histamine release by antigen DNP-Ascaris, mast cell in abdominal cavity (Test Example 10); assay type: cell-based, rat; conditions: 10^-3 M
Description: (§5) Examination was made cn the activity of inhibition of histamine release from mast cell by antigen-antibody reaction.
(§6) Preparation of DNP-Ascaris antiserum was conducted in a manner similar to that in Test Example 6.
(§7) Heparin-containing PBS was injected into the abdominal cavity of rat which was sacrificed by bleeding, after which the abdomen was well massaged, and then peritoneal exudate was sampled. The same liquid was also injected into the thoracic cavity, and after shaking the breast for several minutes, the thoracic cavity liquid was sampled, which was purified by washing several times by centrifugation. The number of the mast cells contained in this liquid was measured and adjusted to a designated concentration. (Mast cells, 8.0×10^4 cells/ml).
(§8) To the cell suspension (4 ml, 9×10^5 cells/ml), anti-DNP-Ascaris rat serum (PCA titer, 32) (4 ml) was added, and the mixture was incubated in the presence of heparin at 37° C. for 2.5 hours. To the solution, 70 microgramms/ml phosphatidylserin PBS solution (0.5 ml) was added and the mixture was incubated at 37° C. for 12 minutes, after which 140 microgramms/ml antigen DNP-Ascaris PBS solution (0.5 ml) was added and the mixture was incubated further for 20 minutes.
After completion of the reaction, the reaction liquid was centrifuged (500 G, 10 min.) to obtain supernatant solution, and histamin in the supernatant solution was subjected to fluorometry by orthophthalal aldehyde method. The released amount of histamin in the control was shown as 100.

[9] = tested on: Mast cell in thoracic cavity; test: Histamine release by antigen DNP-Ascaris, mast cell in thoracic cavity (Test Example 10); assay type: cell-based; conditions: Rattus norvegicus, 20 min, 10^-3 M, read-out: released amount of histamin, Mast cell in thoracic cavity (control shown as 100)
Description: as §5, §6, §7
as §8, with “minutes. […]” for “minutes.”

[10] = tested on: mast cell in abdominal cavity; test: Inhibition of histamine release from mast cell in abdominal cavity in rat (Test Example 6); assay type: cell-based; conditions: for activity at 1000 µM / activity at 100 µM / activity at 10 µM / activity at 1 µM: Rattus norvegicus, Mast cell, 20 min, DNP-Ascaris 20 microgramms/ml, read-out: Amount of histamine released from peritoneal mast cell (Control = 100); for activity at 1000 µM: 10^-3 M; for activity at 100 µM: 10^-4 M; for activity at 10 µM: 10^-5 M; for activity at 1 µM: 10^-6 M
Description: Examination was made on the activity of inhibition of histamine release from mast cell by antigen-antibody reaction.
Swine ascaris extract solution was dinitrophenylated according to Aisen's method, dialysed, and lyophilized. The product was administered as antigen together with Bordetella Pertussis vaccine subcutaneously into the foot pad of rat. Eight days later, blood was taken to obtain antiserum. The PCA titer for this antiserum in rat was 32 to 64.
Heparin-containing PBS was injected intraperitoneally to rat which was sacrificed by exsanguination, after which the abdomen was well massaged to collect the injected PBS, which was purified by washing several times by centrifugation. The number of the mast cells contained in the solution was determined and adjusted to the designed concentration. As to method of sensitizing the cell, the above cell suspension (6 ml, 2×10^6 cells/ml) was treated with anti-DNP-Ascaris rat serum (PCA titer 32) (6 ml) and the mixture was incubated in the presence of hepain at 37° C. for 2 hours.
To the sensitized mast cell suspension the solution of the drug to be tested was added, and the mixture was preliminarily incubated at 37° C. for 12 minutes. After addition of the solution of antigen DNP-Ascaris (final concentration, 20 microgramms/ml), the mixture was further incubated for 20 minutes. After completion of the reaction, the solution was centrifuged (500 G, 10 min.) under a low temperature to obtain a supernatant solution. Histamine contained in the supernatant solution was subjected to fluorometry by crthophthalaldehyde method.

[11] = tested on: anaphylaxis reaction to inhalated antigen; test: Antigen inhalation test on passive sensitized guinea pig (experimental asthma model); assay type: in vivo; conditions: 200 mg/kg po
Description: The test compound and Tranilast were respectively suspended at the time of use in 5% gum arabic solution containing 0.1% Tween 80 at the rate of 40 mg/ml, and were perorally administered at the rate of 0.5 ml per 100 g body weight of the animal.
DSCG was dissolved at the time of use in physiological saline solultion for injection at the rate of 5.0 mg/ml, and was intravenously injected at the rate of 0.1 ml per 100 g body weight of the animal.
Anti-ovalbumin rabbit serum diluted with physiological saline solution for injection so as tc contain anti-ovalbumin rabbit antibody at the rate of 0.187 mg N/ml was intravenously administered to guinea pig at the rate of 0.1 ml per 100 g of body weight and it was passively sensitized.
Twenty-four hours later, the suspension of the compound prepared in (1) above was perorally or intravenously administered to the animal. The animal was put in the inhalation chamber one hour after the administration in case of the peroral administration and five minutes after the administration in case of the intravenous administration, and 2% physiological saline solution of antigen ovalbumin was inhaled by spraying. Over 10 minutes' period from the time immediately after the forced inhalation, the time until its fall attributed to anaphylaxis reaction was recorded, and the numbers of alive and dead animals after lapse of 10 minutes were also counted.

[12] = tested on: SRS-A; test: Anti-SRS-A activity, contraction of guinea pig ileum by crude SRS-A solution; set-up: key to Anti-SRS-A activity (rate of inhibition against the contraction amount): % inhibition of SRS-A-induced ileum contraction
Description: A piece of lungs of guinea pig sensitized with ovalbumin was incubated with antigen ovalbumin at 37° C. for 20 minutes to obtain a supernatant solution, which was used as a crude SRS-A solution.
A piece of ileum of normal guinea pig was suspended in Magnus tube filled with Tyrode's solution and incubated with the solution of drug to be examined for a certain duration, and the contraction of the piece of ileum induced by adding the above crude SRS-A solution was determined on the basis of the contraction rate attributed to hystamine dihydrochloride 10^-6 M. The rate of inhibition against the contraction amount was taken as anti-SRS-A activity.

[13] = tested on: hyaluronidase; conditions: known from the literature; cited from earlier work
[14] = read-out: Average Inhibition Rate (%) Antiserum Dilution: × 16
[15] = read-out: Average Inhibition Rate (%) Antiserum Dilution: × 32
[16] = read-out: Inhibition, Anti-serum Dilution: × 12
[17] = read-out: Inhibition, Anti-serum Dilution: × 24
[18] = intravenous, read-out: LD50 Value (mg/kg of body weight) Intravenous administration
[19] = po, peroral, read-out: LD50 Value (mg/kg of body weight) Peroral administration

Row | Molecule | inhibition in vivo at 10 mg/kg [1, 14] | inhibition in vivo at 10 mg/kg [1, 15] | inhibition in vivo at 50 mg/kg [1, 14] | inhibition in vivo at 50 mg/kg [1, 15] | inhibition in vivo at 100 mg/kg [1, 14] | inhibition in vivo at 100 mg/kg [1, 15] | inhibition in vivo at 10 mg/kg [3, 16] | inhibition in vivo at 10 mg/kg [3, 17] | inhibition in vivo at 50 mg/kg [3, 16] | inhibition in vivo at 50 mg/kg [3, 17] | LD50 at 168 h [4, 18] | LD50 at 168 h [4, 19] | activity at 1000 µM [10] | activity at 100 µM [10] | activity at 10 µM [10] | activity at 1 µM [10] | effect on hyaluronidase activity (in words) [13] | also measured
1 | CCOC(=O)c1ccccc1NC(=O)C(=Cc1ccccc1)C(=O)Nc1ccccc1C(=O)OCC [Compound 14, Diethyl 2,2'-[(1,3-dioxo-2-phenylmethylene-1,3-propanediyl)diimino]bisbenzoate] | 38.6% | 38.7% | 41.9% | 72.2% | 59.3% | 85.1% | 29.8% | 31.3% | 36.7% | 40.5% | 347 mg/kg | – | – | – | – | – | – | LD50 at 168 h ([2]; iv, read-out: LD50 value (mg/kg body weight) Mouse i.v.): 299 mg/kg; LD50 at 168 h ([2]; po, read-out: LD50 value (mg/kg body weight) Mouse p.o.): > 10000 mg/kg; histamine release inhibiting activity, dextran (T-500) (in words) ([5]; 10^-4 and 10^-3 M, almost the same as DSCG): histamine release inhibiting activities; activity at 1000 µM ([5]; Rattus norvegicus, Mast cell, 0.25 h, 10^-3 M, read-out: Effect on release of histamine by dextran (T-500), Mast cell in abdominal cavity (control 100)): 40.2%; activity at 100 µM ([5]; Rattus norvegicus, Mast cell, 0.25 h, 10^-4 M, read-out: Effect on release of histamine by dextran (T-500), Mast cell in abdominal cavity (control 100)): 94.5%; Effect on release of histamine by dextran (T-500), Mast cell in thoracic cavity (control 100) ([6]; 10^-4, 15 min): 55.6; activity at 1000 µM ([6]; Rattus norvegicus, Mast cell, 0.25 h, 10^-3 M, read-out: Effect on release of histamine by dextran (T-500), Mast cell in thoracic cavity (control 100)): 42.2%; histamine release inhibiting activity, antigen DNP-Ascaris (in words) [7]: histamine release inhibiting activity
2 | COC(=O)c1ccccc1NC(=O)C(=Cc1ccccc1)C(=O)Nc1ccccc1C(=O)OC [Compound 51] | – | – | – | – | – | – | 28.1% | 30.3% | 34.2% | 37.5% | 238 mg/kg | ≥ 8000 mg/kg | – | – | – | – | – | inhibition of release of histamine from mast cells in abdominal and thoracic cavity (in words) [8]: action of inhibiting release of histamine; activity at 1000 µM ([8]; Rattus norvegicus, Mast cell, 20 min, read-out: released amount of histamin, Mast cell in abdominal cavity (control shown as 100)): 50.4%; activity at 1000 µM [9]: 75.1%
3 | O=c1oc(C(=Cc2ccccc2)c2nc3ccccc3c(=O)o2)nc2ccccc12 [Compound 52, 2,2'-phenylethenilidenebis(3,1-benzoxazine-4-one)] | 20.6% | 29.4% | 37.9% | 38.3% | 45% | 47.1% | – | – | – | – | 319 mg/kg | > 10000 mg/kg | 21% | 60% | 68% | 70% | – | inhibition of release of histamine from the mast cell (in words) ([10]; even at the low concentration of 10^-6 M): inhibiting release of histamine
4 | COc1ccc(/C=C/C(=O)Nc2ccccc2C(=O)O)cc1OC [Tranilast, reference compound] | – | – | – | – | – | – | – | – | – | – | – | – | 29% | 67% | 95% | 95% | inhibit hyaluronidase activity | inhibition in vivo at 200 mg/kg [1, 14]: 1.8%; inhibition in vivo at 200 mg/kg [1, 15]: 15.8%; Extended rate (%) [11]: -3.0%; preventive effect on anaphylaxis reaction (in words) [11]: no activity; Average time for falling Mean ± S.E. ([11]; N 5): 150.8 ± 14.8 s; Required time (sec.) for falling and Number of death (#), single animals ([11]; N 5, observed 10 minutes, # shows death): 116 s and 126 s and 141 s and 181 s and 190 s; Anti-SRS-A activity (rate of inhibition against the contraction amount) ([12]; 10^-3 M): 0; Anti-SRS-A activity (rate of inhibition against the contraction amount) ([12]; 10^-4 M): 0; Anti-SRS-A activity (rate of inhibition against the contraction amount) ([12]; 10^-5 M): 0; Anti-SRS-A activity (rate of inhibition against the contraction amount) ([12]; 10^-6 M): 0; anti-SRS-A activity (in words) ([12]; compound 11 at a concentration of 10^-3 M): no activity; inhibition in vivo at 200 mg/kg [3, 16]: 2.1%; inhibition in vivo at 200 mg/kg [3, 17]: 10.7%
5 | polymixin B | – | – | – | – | – | – | – | – | – | – | – | – | – | – | – | – | activate hyaluronidase | –
